In ChEMBL document CHEMBL4507319 (2021):

How the values were obtained:
Conditions in all cases: Compound concentration 1.0 uM
[1] = biological target: T1, Cytoplasmic tyrosine-protein kinase BMX (Homo sapiens) (UniProt P51813); assay: Bmx(h) Eurofins kinase panel
T1 sequence (whole entry): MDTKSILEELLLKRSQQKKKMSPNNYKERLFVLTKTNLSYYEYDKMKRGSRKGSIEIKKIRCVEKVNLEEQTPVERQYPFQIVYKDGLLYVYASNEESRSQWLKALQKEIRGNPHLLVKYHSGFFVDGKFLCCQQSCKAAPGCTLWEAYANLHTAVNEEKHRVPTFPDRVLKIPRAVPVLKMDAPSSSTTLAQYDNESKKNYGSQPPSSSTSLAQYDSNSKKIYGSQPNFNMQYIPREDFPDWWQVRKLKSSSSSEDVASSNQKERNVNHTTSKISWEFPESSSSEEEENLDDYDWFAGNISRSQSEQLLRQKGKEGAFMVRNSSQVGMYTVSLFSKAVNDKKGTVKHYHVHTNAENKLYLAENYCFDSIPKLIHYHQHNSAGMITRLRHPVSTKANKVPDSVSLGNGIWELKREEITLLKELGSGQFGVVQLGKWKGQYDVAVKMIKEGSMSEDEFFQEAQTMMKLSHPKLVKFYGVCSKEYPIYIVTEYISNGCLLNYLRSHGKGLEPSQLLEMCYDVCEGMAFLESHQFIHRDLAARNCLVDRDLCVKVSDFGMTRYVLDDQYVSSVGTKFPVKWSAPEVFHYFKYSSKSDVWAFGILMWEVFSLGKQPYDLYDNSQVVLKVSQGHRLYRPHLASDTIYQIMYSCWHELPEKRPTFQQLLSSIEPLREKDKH

[2] = biological target: Testis-specific serine/threonine-protein kinase 2 (Homo sapiens) (UniProt Q96PF2); assay: TSSK2(h) Eurofins kinase panel
[3] = biological target: Interferon-induced, double-stranded RNA-activated protein kinase (Homo sapiens) (UniProt P19525); assay: PKR(h) Eurofins kinase panel
[4] = biological target: Receptor tyrosine-protein kinase erbB-4 (Homo sapiens) (UniProt Q15303); assay: ErbB4(h) Eurofins kinase panel
[5] = biological target: T2, NUAK family SNF1-like kinase 1 (Homo sapiens) (UniProt O60285); assay: ARK5(h) Eurofins kinase panel
T2 sequence (whole entry): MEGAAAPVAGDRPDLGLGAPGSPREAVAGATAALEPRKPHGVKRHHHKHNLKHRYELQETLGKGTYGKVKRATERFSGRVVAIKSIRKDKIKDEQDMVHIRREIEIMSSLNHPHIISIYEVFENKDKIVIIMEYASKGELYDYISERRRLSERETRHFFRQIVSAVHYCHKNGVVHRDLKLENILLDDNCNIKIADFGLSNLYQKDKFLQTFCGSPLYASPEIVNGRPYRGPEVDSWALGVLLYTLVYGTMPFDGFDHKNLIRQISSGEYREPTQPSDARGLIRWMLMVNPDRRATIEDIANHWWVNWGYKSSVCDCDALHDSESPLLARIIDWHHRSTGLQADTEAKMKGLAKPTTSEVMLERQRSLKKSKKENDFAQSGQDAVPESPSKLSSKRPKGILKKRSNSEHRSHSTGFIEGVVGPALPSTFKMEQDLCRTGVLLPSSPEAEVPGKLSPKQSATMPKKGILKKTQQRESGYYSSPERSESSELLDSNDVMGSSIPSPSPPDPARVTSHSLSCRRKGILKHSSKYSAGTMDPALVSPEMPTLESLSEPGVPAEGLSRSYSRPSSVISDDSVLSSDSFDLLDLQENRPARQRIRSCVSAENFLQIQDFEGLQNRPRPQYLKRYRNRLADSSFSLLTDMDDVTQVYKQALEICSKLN

[6] = biological target: Insulin receptor (Homo sapiens) (UniProt P06213); assay: IR(h), activated Eurofins kinase panel
[7] = biological target: T3, Serine/threonine-protein kinase NLK (Homo sapiens) (UniProt Q9UBE8); assay: NLK(h) Eurofins kinase panel
T3 sequence (whole entry): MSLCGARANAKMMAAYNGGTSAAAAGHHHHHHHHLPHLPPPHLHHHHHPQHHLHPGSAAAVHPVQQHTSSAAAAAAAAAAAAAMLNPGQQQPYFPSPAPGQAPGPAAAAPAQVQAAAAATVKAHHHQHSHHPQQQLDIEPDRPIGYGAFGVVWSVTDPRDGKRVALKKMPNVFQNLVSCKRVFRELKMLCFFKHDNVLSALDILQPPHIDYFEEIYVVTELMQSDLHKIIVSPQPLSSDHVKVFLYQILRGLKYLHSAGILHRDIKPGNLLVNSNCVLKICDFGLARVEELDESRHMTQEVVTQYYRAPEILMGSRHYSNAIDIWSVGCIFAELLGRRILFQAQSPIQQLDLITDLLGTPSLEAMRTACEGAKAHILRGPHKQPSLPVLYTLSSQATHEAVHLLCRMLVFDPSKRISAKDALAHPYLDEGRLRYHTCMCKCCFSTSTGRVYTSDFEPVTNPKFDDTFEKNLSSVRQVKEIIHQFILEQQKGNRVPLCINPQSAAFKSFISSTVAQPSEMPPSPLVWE

[8] = biological target: Fibroblast growth factor receptor 3 (Homo sapiens) (UniProt P22607); assay: FGFR3(h) Eurofins kinase panel
[9] = biological target: T4, Mitogen-activated protein kinase kinase kinase kinase 3 (Homo sapiens) (UniProt Q8IVH8); assay: MAP4K3(h) Eurofins kinase panel
T4 sequence (whole entry): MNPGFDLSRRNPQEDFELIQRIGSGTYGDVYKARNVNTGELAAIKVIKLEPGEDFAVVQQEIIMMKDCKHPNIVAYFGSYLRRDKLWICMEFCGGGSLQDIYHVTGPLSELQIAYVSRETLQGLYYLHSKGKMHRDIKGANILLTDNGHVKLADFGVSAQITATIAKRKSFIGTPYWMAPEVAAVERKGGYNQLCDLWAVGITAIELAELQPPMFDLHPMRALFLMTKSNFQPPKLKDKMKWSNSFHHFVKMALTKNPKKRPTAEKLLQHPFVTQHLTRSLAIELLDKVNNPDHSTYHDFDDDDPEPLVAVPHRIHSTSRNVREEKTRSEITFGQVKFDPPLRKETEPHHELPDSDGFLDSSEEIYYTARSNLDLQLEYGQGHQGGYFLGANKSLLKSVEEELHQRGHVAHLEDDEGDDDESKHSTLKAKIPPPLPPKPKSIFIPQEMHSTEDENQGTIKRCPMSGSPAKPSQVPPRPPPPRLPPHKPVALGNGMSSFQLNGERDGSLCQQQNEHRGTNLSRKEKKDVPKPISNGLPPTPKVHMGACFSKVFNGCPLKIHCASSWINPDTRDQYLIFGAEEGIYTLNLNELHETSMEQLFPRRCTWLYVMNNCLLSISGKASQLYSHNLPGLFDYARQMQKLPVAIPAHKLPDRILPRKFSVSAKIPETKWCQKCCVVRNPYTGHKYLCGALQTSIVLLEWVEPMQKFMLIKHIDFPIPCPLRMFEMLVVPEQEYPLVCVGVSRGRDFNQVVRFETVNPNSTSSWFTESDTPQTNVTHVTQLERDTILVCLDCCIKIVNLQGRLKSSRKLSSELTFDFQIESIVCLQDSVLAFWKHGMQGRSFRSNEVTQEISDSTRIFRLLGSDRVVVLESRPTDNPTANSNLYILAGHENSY

Measured: % residual kinase activity

Chain of Insulin receptor (Homo sapiens) (P06213 28-758 limits assumed): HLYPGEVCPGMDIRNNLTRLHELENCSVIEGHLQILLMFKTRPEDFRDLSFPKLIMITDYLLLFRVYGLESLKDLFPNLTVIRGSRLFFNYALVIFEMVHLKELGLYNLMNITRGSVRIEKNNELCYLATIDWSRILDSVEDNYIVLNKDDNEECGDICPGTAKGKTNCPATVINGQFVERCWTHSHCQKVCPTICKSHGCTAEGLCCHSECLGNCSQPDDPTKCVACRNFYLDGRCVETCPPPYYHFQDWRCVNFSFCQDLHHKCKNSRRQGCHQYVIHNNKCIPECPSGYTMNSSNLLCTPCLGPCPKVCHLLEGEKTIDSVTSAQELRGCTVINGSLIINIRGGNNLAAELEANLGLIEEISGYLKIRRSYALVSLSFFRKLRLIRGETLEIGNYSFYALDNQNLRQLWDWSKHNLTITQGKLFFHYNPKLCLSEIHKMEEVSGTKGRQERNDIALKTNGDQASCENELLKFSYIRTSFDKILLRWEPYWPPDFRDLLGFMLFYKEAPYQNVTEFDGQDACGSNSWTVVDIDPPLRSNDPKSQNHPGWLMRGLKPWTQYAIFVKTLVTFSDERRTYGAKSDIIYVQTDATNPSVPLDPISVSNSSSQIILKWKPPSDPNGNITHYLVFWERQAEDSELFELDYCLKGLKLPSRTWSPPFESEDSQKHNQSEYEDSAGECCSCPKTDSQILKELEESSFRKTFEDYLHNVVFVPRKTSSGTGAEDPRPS
Chain of Insulin receptor (Homo sapiens) (P06213 763-1382 limits assumed): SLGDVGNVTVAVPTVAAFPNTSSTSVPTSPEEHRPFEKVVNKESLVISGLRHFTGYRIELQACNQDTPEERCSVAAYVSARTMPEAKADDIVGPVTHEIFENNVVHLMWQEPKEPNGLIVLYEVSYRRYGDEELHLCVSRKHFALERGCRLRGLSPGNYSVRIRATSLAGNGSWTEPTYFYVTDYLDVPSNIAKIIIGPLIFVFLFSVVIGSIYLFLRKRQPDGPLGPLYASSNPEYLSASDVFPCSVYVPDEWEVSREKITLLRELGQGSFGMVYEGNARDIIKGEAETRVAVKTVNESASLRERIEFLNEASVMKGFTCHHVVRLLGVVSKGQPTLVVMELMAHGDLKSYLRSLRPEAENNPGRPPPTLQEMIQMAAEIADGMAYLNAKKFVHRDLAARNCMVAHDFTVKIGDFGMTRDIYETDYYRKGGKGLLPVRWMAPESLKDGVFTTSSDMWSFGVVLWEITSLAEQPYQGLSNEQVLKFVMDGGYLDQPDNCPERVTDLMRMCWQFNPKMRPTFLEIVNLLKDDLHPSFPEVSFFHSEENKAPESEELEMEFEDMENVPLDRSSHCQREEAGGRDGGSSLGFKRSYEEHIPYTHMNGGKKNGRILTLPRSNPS
Chain of Receptor tyrosine-protein kinase erbB-4 (Homo sapiens) (Q15303 whole entry): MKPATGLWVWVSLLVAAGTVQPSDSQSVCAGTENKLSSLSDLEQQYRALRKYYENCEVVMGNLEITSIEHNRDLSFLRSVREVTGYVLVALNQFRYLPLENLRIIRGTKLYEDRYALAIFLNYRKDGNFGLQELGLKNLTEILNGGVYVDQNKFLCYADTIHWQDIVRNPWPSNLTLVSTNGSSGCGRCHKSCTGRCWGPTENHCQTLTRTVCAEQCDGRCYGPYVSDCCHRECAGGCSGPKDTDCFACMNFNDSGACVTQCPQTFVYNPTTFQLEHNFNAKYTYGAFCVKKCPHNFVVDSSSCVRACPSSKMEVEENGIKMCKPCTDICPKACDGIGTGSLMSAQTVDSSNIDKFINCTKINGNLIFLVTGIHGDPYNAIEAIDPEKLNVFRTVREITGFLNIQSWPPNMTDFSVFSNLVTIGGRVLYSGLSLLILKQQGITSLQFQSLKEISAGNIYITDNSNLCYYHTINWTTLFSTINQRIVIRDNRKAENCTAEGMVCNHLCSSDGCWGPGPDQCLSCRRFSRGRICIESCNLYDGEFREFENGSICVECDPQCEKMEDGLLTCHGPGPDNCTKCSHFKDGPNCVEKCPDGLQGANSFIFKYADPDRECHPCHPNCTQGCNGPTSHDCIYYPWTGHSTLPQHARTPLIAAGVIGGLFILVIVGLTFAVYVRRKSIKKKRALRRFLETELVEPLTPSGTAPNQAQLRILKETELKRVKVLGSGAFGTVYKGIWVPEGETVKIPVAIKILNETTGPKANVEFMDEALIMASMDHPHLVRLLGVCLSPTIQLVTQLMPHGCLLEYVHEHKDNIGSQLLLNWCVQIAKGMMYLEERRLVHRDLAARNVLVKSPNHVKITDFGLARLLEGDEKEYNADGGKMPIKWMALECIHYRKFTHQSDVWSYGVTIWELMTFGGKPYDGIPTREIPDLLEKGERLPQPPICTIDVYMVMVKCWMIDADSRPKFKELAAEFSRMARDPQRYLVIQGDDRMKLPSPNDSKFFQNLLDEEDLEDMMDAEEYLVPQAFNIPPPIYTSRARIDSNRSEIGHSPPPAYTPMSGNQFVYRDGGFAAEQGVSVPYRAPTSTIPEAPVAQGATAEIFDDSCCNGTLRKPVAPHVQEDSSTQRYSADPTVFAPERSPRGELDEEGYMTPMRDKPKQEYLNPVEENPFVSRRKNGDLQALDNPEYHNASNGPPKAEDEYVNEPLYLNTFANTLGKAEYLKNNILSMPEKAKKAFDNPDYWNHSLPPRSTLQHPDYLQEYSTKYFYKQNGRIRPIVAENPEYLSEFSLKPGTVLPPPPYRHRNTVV
Chain of Interferon-induced, double-stranded RNA-activated protein kinase (Homo sapiens) (P19525 whole entry): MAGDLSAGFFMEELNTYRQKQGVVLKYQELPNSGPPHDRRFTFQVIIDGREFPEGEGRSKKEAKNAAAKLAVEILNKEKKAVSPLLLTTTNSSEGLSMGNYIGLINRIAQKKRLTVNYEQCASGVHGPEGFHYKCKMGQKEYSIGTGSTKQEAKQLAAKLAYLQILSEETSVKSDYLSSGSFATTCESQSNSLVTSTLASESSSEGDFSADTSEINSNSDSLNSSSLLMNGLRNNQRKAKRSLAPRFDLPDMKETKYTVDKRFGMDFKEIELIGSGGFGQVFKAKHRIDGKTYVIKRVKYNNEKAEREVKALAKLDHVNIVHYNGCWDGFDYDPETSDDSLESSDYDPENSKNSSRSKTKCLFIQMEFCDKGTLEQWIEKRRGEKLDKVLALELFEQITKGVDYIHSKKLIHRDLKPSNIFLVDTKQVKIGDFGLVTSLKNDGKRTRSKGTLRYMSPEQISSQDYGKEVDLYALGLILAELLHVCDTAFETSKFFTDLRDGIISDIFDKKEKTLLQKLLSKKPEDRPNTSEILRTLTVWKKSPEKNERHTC
Chain of Fibroblast growth factor receptor 3 (Homo sapiens) (P22607 23-806 limits assumed): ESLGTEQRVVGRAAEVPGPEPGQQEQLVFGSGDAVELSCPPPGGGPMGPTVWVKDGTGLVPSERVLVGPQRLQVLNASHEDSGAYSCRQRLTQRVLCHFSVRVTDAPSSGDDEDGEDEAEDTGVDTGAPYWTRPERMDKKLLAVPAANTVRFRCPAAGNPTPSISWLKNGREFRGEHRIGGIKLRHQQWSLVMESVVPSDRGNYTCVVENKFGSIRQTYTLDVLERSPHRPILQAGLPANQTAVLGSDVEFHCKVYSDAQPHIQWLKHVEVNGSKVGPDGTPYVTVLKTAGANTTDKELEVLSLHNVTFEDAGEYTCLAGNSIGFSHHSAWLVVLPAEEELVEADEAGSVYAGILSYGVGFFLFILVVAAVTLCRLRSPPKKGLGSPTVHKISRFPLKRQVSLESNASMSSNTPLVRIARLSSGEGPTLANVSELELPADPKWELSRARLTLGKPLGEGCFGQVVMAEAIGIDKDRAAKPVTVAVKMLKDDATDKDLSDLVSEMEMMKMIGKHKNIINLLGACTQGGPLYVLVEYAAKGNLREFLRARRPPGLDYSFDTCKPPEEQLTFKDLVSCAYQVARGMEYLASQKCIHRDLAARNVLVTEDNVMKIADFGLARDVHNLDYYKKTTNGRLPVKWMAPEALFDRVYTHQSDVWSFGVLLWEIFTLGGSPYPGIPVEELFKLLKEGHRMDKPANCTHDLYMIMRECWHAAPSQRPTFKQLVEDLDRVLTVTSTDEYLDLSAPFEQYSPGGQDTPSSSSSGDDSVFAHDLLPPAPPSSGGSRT
Chain of Testis-specific serine/threonine-protein kinase 2 (Homo sapiens) (Q96PF2 whole entry): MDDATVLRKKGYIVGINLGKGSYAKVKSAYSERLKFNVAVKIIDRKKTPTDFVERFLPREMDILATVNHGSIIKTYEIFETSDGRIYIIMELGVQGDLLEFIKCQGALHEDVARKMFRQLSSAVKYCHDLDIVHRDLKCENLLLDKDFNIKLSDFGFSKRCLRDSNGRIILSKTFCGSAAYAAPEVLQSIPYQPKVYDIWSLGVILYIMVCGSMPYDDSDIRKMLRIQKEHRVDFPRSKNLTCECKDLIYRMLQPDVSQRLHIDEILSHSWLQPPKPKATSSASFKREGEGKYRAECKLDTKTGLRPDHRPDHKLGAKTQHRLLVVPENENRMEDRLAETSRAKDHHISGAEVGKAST

CCc1ccccc1C(=O)Nc1n[nH]c2c(C)c(F)c(C3C(C#N)=C(C)N(C)C(C)=C3C#N)cc12 [BAY-3827]
inactive: [1] 113% | [2] 105% | [3] 96% | [4] 101% | [5] 21% | [6] 89% | [7] 91% | [8] 99% | [9] 78%
